Reference: patent US20260150837A1, “GLUCAN DERIVATIVES FOR MICROBIAL CONTROL” (Nutrition & Biosciences USA 4, Inc., priority 2021, published 2026)

Tested on: Escherichia coli ATCC 25922
Assay: ASTM E3160-18 antibacterial efficacy of treated fabric, with ASTM E3162-18 wash durability
Assay type: cell-based
Details: cotton, use level 250-2000 ppm by row; for AM Activity after 25 Real Time Washes: after 25 real time washes (ASTM-E3162-18); for Initial AM Activity: before washing
Method: (Procedure 1A) Exhaust Method: Alpha-1,6-glucan ether compounds (e.g., as prepared in Materials/Methods) were exhaust-applied using Werner Mathis AG BFA-12 exhaust equipment. Individual formulation baths comprising desired concentrations of a glucan ether polymer in water were prepared. Each fabric sample (20 g) was loosely folded horizontally and placed into a test canister, followed by addition of 200 ml of a bath solution. The canisters were then closed and secured to the rotating wheel of the equipment. The rotation speed of the wheel was set to 35 rpm, switching from clockwise to counterclockwise modes at 1-minute intervals. In each case, the instrument, with the samples already loaded, would first heat up at a selected rate of heating until the target temperature was reached, maintaining the temperature for preset durations, before cooling down to initial temperature. Once the exhaustion process was complete, all the fabric samples were removed from the exhaust canisters and passed through padding equipment (Fanyuan Instruments, DW2010A) set to a pressure of 8.4 kg to squeeze out the excess water. Lastly, each sample was dried in a MATHIS lab dryer LTE for 5 minutes at 120° C.
(Procedure 1B) Padding Method: Alpha-1,6-glucan ether compounds (e.g., as prepared in Materials/Methods) were also applied to fabric samples via a padding process using a MATHIS HF or Fanyuan Instruments (DW2010A) padder. Dry fabric was submerged into a bath containing an aqueous solution of glucan ether compound at a desired concentration in water and passed through padder rollers to squeeze out (applied pressure equaled 3.1 bar) excess treatment solution. Each fabric sample was dried and cured in a MATHIS lab dryer LTE for 5 minutes at 120° C. Each glucan solution was prepared to account for water weight pick-up by each fabric type and their exhaust potential.
(Procedure 2A) ASTM E3160-18: In some cases, an alpha-1,6-glucan ether compound herein was considered to be antimicrobially efficient if it imparted a >3 log10 reduction of bacterial growth as tested by the American Society for Testing and Materials (ASTM) method E3160-18 (Quantitative Evaluation of the Antibacterial Properties of Porous Antibacterial Treated Articles, incorporated herein by reference) at a use level ≤5000 ppm. The ASTM E3160 method was performed as follows: The day before the test, a culture of Escherichia coli of the American Type Culture Collection (ATCC) 25922 was inoculated by transferring a single colony from tryptic soy agar (TSA), using a sterile loop, into a tryptic soy broth (TSB). On the day of the experiment (next day), each fabric sample (treated with an alpha-1,6-glucan ether herein or a control compound, e.g., prepared by Procedure 1A above) was cut into three 0.40-g swatches (about 1×1 inch). Each fabric swatch was placed into a 50-mL sterile specimen cup. On the same day, bacterial/working inoculum was prepared by diluting the overnight culture of E. coli into phosphate buffer supplemented with TSB (1:500) and 0.05% TRITON X-100 to obtain a bacterial concentration that was between 2.5×10^5 colony forming units (CFU)/mL and 1.0×10^6 CFU/mL, with a target concentration of 6×10^5 CFU/mL. All samples were inoculated by applying 0.2 mL of working inoculum in several aliquots directly onto the fabric surface, and were allowed to incubate for 24 hours at 37° C. Samples were neutralized with 10 mL Dey-Engley (D-E) neutralizing buffer and enumerated in triplicate in 96-well plates containing 180 μL TSB by transferring 20 μL of neutralized sample to the top well of the 96-well plates and serially diluting 20 μL down the plate.

Compound | AM Activity after 25 Real Time Washes [log10 log10 reduction] | Initial AM Activity [log10 log10 reduction]
CCCCCCCCCCCCCCCCCC[N+](C)(C)CCC[Si](O)(O)O.[Cl-] [Comparative 3, 3-(trihydroxysilyl)propyldimethyl-octadecyl ammonium chloride] | <1 | 5
CCCCCCCCCCCC(=O)N[C@@H](CCCNC(=N)N)C(=O)OCC [Comparative 5, Lauroyl arginine ethyl ester] | <1 | 5
CCCCCCCCCCCC[N+](C)(C)CC(O)CCl.[Cl-] (centres unmarked) [Comparative 6, 3-chloro-2-hydroxypropyl dodecyldimethylammonium chloride] | <2 | 5
CCCCCCCCCCCC[N+](C)(C)C.[Cl-] [Comparative 7, dodecyltrimethylammonium chloride] | <1 | 5
